Source: PubChem BioAssay (NCI)
Several values for one entry are separate records, joined by “and”; a condition that tells them apart may be missing. Equal entries are not always repeated.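 Tested at 5 concentrations; 48 h exposure; 96-well plates; endpoints linearly interpolated, else capped at highest concentration. GI50 is the concentration that inhibits growth by half. TGI: total growth inhibition.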

Key:
Experiment in all cases: growth of human tumour cells (NCI), 48 h
SW-620 colon = test system: SW-620 colon
A498 renal = test system: A498 renal
K-562 leukemia = test system: K-562 leukemia
HS 578T breast = test system: HS 578T breast
NCI/ADR-RES ovarian = test system: NCI/ADR-RES ovarian
PC-3 prostate = test system: PC-3 prostate
COLO 205 colon = test system: COLO 205 colon
MDA-MB-231 breast = test system: MDA-MB-231 breast
DMS 114 small cell lung = test system: DMS 114 small cell lung

Structure (SMILES)	GI50 (SW-620 colon)	TGI (SW-620 colon)	GI50 (A498 renal)	TGI (A498 renal)	GI50 (K-562 leukemia)	TGI (K-562 leukemia)	GI50 (HS 578T breast)	TGI (HS 578T breast)	GI50 (NCI/ADR-RES ovarian)	TGI (NCI/ADR-RES ovarian)	GI50 (PC-3 prostate)	TGI (PC-3 prostate)	GI50 (COLO 205 colon)	TGI (COLO 205 colon)	GI50 (MDA-MB-231 breast)	TGI (MDA-MB-231 breast)	TGI (DMS 114 small cell lung)
C=CC(=O)N1CC[C@@H](Oc2nc(Nc3ccc(N4CCC(N5CCN(C)CC5)CC4)cc3)c(C(N)=O)nc2CC)C1	> 100 µM	> 100 µM	> 100 µM	> 100 µM	> 100 µM	> 100 µM	> 100 µM	> 100 µM	> 100 µM	> 100 µM	> 100 µM	> 100 µM	> 100 µM	> 100 µM	> 100 µM	> 100 µM	–
COc1c(C)cnc(Cn2cnc3c(Cl)nc(N)nc32)c1C	0.113 µM	> 100 µM	0.679 µM	23.4 µM	0.187 µM	> 100 µM	3.53 µM	> 100 µM	0.509 µM	> 100 µM	0.359 µM	> 100 µM	0.218 µM	–	0.559 µM	> 72.9 µM	–
CCCCCC1C2C(=O)NC(=O)C1C(=O)NC2=O (stereo not given)	–	> 100 µM	–	> 100 µM	–	> 100 µM	–	–	–	–	–	–	–	> 100 µM	–	–	> 100 µM
COc1cc2c(c(OC)c1OC)-c1c(c3ccc([N+](=O)[O-])cc3c(=O)n1CCCN=[N+]=[N-])C2=O	33.6 µM	> 100 µM	11.9 µM	29.6 µM	> 100 µM	> 100 µM	12.2 µM	> 100 µM	45.3 µM	> 100 µM	> 100 µM	> 100 µM	> 100 µM	> 100 µM	19.1 µM	56.3 µM	–
O=C1C2=C(Nc3cc([N+](=O)[O-])ccc3N2)OC1c1c[nH]c2ccc(COc3ccccc3)cc12 (stereo not given)	–	> 100 µM	–	> 100 µM	–	> 100 µM	–	> 100 µM	–	> 100 µM	–	> 100 µM	–	55.8 µM	–	> 100 µM	–
CCN(CC)CCCC(C)NC(=S)N/N=C(\C)c1ccccn1 (stereo not given)	4.03 µM	> 100 µM	2.57 µM	97 µM	3.08 µM	> 100 µM	43.9 µM	> 100 µM	15.6 µM	> 100 µM	5.02 µM	> 100 µM	3.25 µM	> 100 µM	0.475 µM	> 100 µM	–
CC(CCC/C=C/CCCN(C)C(=N)N)CC(C)C1OC(=O)C(C)C(O)/C=C/C(C)C(O)C(C)C(O)C(C)C(O)CCCC(O)CC2(O)OC(CC(OC(=O)CC(=O)O)CC(O)CC(O)C(C)C(O)/C=C/C=C/C1C)CC(O)C2O (stereo not given)	2.02 µM and 9.83 µg/mL	3.7 µM and 21.7 µg/mL	2.44 µM and 10.6 µg/mL	7.16 µM and 21.3 µg/mL	3.13 µM and 10.4 µg/mL	7.16 µM and 75 µg/mL	2.56 µM and 2.5 µg/mL	7.84 µM and 12.9 µg/mL	5.99 µM and 15.9 µg/mL	20.4 µM and 34.3 µg/mL	3.09 µM and 4.86 µg/mL	11.5 µM and 16 µg/mL	1.75 µM and 2.42 µg/mL	3.33 µM and 10.6 µg/mL	5.59 µM and 8.55 µg/mL	19 µM and 19.9 µg/mL	–
CCCCCCCCCCCCOC1C(C(COC2OC(C(O)CO)C3OC(C)(C)OC23)OC(=O)Nc2ccc([N+](=O)[O-])cc2)OC2OC(C)(C)OC21 (stereo not given)	1.79 µM	3.33 µM	2.63 µM	6.09 µM	3.87 µM	16.8 µM	1.88 µM	3.74 µM	12.3 µM	26.5 µM	2.42 µM	5.63 µM	7.28 µM	23.9 µM	2.6 µM	7.2 µM	–
COc1cc(OC)c(-c2oc3ccccc3c(=O)c2O)c(OC)c1	–	> 100 µM	–	> 100 µM	–	> 100 µM	–	24.2 µM	–	5.05 µM	–	> 100 µM	–	> 100 µM	–	> 100 µM	–
CCN(CC)CCC(CNc1c2ccc(Cl)cc2nc2ccc(OC)cc12)c1ccccc1 (stereo not given)	0.538 µM	2.15 µM	1.4 µM	2.75 µM	0.337 µM	1.28 µM	1.95 µM	5.44 µM	1.28 µM	5.12 µM	1.96 µM	6.16 µM	1.09 µM	2.28 µM	1.01 µM	2.73 µM	–
CCCCCCn1c(=N)n(CC(O)COc2cccc(C)c2)c2ccccc21 (stereo not given)	1.82 µM	4.04 µM	1.8 µM	7.35 µM	2.07 µM	5.28 µM	2.63 µM	8.27 µM	2.82 µM	8.89 µM	2.16 µM	5.23 µM	1.9 µM	3.43 µM	2.2 µM	6.44 µM	–
N#Cc1ccccc1C#C/C=C\C#Cc1cnccn1	5.85 µM	> 41.9 µM	16.2 µM	52.3 µM	4.73 µM	> 100 µM	27.5 µM	> 93.1 µM	4.32 µM	> 30.6 µM	30.9 µM	> 100 µM	19.7 µM	> 57.5 µM	11.1 µM	44.1 µM	–
COc1ccc(/C=C2\CC(C)CC3C2=NN(C(C)=O)C3c2ccc(OC)c(OC)c2)cc1OC (stereo not given)	26.1 µM	67.1 µM	15.9 µM	31 µM	13 µM	> 100 µM	26.2 µM	61.3 µM	12.8 µM	43 µM	13.8 µM	> 100 µM	11.1 µM	27.7 µM	24.5 µM	> 100 µM	–
C/C=C\C(C)=C/C(C)C(=O)CC(O)CC1CC(=O)NC(=O)C1 (stereo not given)	–	> 100 µM	–	> 100 µM	–	> 100 µM	–	62.5 µM	–	48.2 µM	–	> 100 µM	–	> 100 µM	–	> 100 µM	–
CCCC1C2=C(C(=O)OC2=O)C2C(CC)CC3=C(C(=O)OC3=O)C12 (stereo not given)	–	> 100 µM	–	> 100 µM	–	> 100 µM	–	> 100 µM	–	> 100 µM	–	> 100 µM	–	> 100 µM	–	> 100 µM	–
CC(=O)OC1C(OC/C2=C/C3[C@@H](C(C)C)CC=C(C)[C@@H]3CC(OC(=O)/C=C/c3cn(C)cn3)[C@]3(C)C=C[C@@]2(O)O3)OCC(O)C1O (stereo not given in full)	0.0188 µM	> 50 µM	0.0122 µM	0.106 µM	0.0157 µM	> 50 µM	0.00831 µM	0.035 µM	4.81 µM	> 39.4 µM	0.0271 µM	> 50 µM	0.0112 µM	0.0975 µM	0.421 µM	> 50 µM	–

Structure (SMILES)	GI50 (SW-620 colon)	TGI (SW-620 colon)	GI50 (A498 renal)	TGI (A498 renal)	GI50 (K-562 leukemia)	TGI (K-562 leukemia)	GI50 (HS 578T breast)	TGI (HS 578T breast)	GI50 (NCI/ADR-RES ovarian)	TGI (NCI/ADR-RES ovarian)	GI50 (PC-3 prostate)	TGI (PC-3 prostate)	GI50 (COLO 205 colon)	TGI (COLO 205 colon)	GI50 (MDA-MB-231 breast)	TGI (MDA-MB-231 breast)	TGI (DMS 114 small cell lung)
Cn1c(N)c(N=Nc2ccc(S(N)(=O)=O)cc2)c(=O)n(C)c1=O	–	> 100 µM	–	> 100 µM	–	> 100 µM	–	99.1 µM	–	> 100 µM	–	> 100 µM	–	> 100 µM	–	> 100 µM	–
COc1cc(C2C3=C(COC3=O)N(CCO)c3cc4c(cc32)CCC4)cc(OC)c1OC (stereo not given)	0.126 µM	> 32.5 µM	0.0722 µM	1.76 µM	0.0955 µM	> 10.4 µM	0.104 µM	> 32.5 µM	0.709 µM	4.45 µM	0.112 µM	> 32.5 µM	0.0651 µM	0.148 µM	0.137 µM	> 32.5 µM	–
COc1ccc(C2CC(c3cccc(Nc4ccnc5cc(Cl)ccc45)c3)=NN2c2ccc(Cl)cc2)cc1 (stereo not given)	0.533 µM	21.6 µM	4.64 µM	53.9 µM	2.75 µM	> 100 µM	14.7 µM	> 100 µM	9.51 µM	43.4 µM	1.18 µM	64.5 µM	3.78 µM	19.7 µM	4.84 µM	65.2 µM	–
COc1cc2c(cc1Nc1nc(Nc3ccsc3C(N)=O)c3cc[nH]c3n1)N(C(=O)CN(C)C)CCC2	0.0726 µM	> 25 µM	0.5 µM	4.13 µM	0.875 µM	13.7 µM	1.14 µM	5.42 µM	4.75 µM	> 25 µM	1.17 µM	> 23.6 µM	< 0.0025 µM	0.394 µM	1.01 µM	4.63 µM	–
C#Cc1cccc(NC(=O)Nc2cccc(NC(=O)CCl)c2)c1	16.9 µM	37.3 µM	1.22 µM	> 82.5 µM	22.8 µM	> 82.5 µM	21.2 µM	> 82.5 µM	20.1 µM	75.7 µM	37.8 µM	> 82.5 µM	58.7 µM	> 82.5 µM	22.9 µM	65.2 µM	–
O=C1/C(=C/c2ccc([N+](=O)[O-])s2)Oc2ccc(Cl)cc21	0.206 µM	0.49 µM	1.74 µM	4.91 µM	0.133 µM	0.909 µM	0.372 µM	> 100 µM	0.738 µM	2.89 µM	0.216 µM	0.593 µM	0.527 µM	1.36 µM	0.231 µM	0.586 µM	–
Cc1ccc(SCN2CCCCC2)cc1 (tested in a mixture with another compound)	–	56.5 µM	–	14.7 µM	–	46.3 µM	–	37.1 µM	–	57.5 µM	–	30.2 µM	–	16 µM	–	27.7 µM	–
Cn1cc(C2=C(c3cn(CCCSC(=N)N)c4ccccc34)C(=O)NC2=O)c2ccccc21	1.66 µM	5.51 µM	5 µM	12 µM	2.67 µM	6.78 µM	1.91 µM	9.96 µM	> 25 µM	> 25 µM	3.38 µM	11.1 µM	0.668 µM	1.92 µM	2.11 µM	9.52 µM	–
Cc1nn(-c2ccccc2)c2ncc3c(c12)C(=O)N(Cc1ccccc1)C3=O	> 100 µM	> 100 µM	3.51 µM	21.8 µM	3.73 µM	41.9 µM	2.98 µM	> 100 µM	4.46 µM	> 100 µM	10.1 µM	> 100 µM	4.99 µM	> 100 µM	5.11 µM	50.2 µM	–
Cn1c([N+](=O)[O-])cnc1/C=C1\Oc2ccc(Cl)cc2C1=O	0.181 µM	0.66 µM	1.89 µM	5.07 µM	0.765 µM	> 26.9 µM	1.83 µM	> 24.1 µM	0.534 µM	> 22.5 µM	1.12 µM	7.1 µM	0.8 µM	3.15 µM	0.783 µM	4.64 µM	–
CCCCc1ccc(C(N)=O)nc1	> 100 µM	> 100 µM	48.1 µM	> 100 µM	> 100 µM	> 100 µM	20 µM	> 100 µM	> 100 µM	> 100 µM	> 100 µM	> 100 µM	> 100 µM	> 100 µM	> 100 µM	> 100 µM	–
Cn1c(N)cc(=O)nc1N	–	> 100 µM	–	> 100 µM	–	> 100 µM	–	> 100 µM	–	> 100 µM	–	> 100 µM	–	> 100 µM	–	> 100 µM	–
COC(=O)c1cc2c([nH]c3ccccc32)c(-c2nc3cc(N(S(=O)(=O)c4ccc(C)cc4)S(=O)(=O)c4ccc(C)cc4)c(OC)cc3cc2CO)n1	> 100 µM	> 100 µM	> 100 µM	> 100 µM	> 100 µM	> 100 µM	30.6 µM	> 100 µM	> 100 µM	> 100 µM	> 100 µM	> 100 µM	> 100 µM	> 100 µM	78.6 µM	> 100 µM	–
O=C(CN1C(=O)c2ccccc2C1=O)NC1(C(=O)O)CCCC1	–	> 100 µM	–	> 100 µM	–	> 100 µM	–	> 100 µM	–	> 100 µM	–	> 100 µM	–	> 100 µM	–	> 100 µM	–
CCOC(=O)C(Cc1ccc(N(CCCl)CCCl)cc1)NC(=O)C(CC(C)C)NC(C)=O (stereo not given)	1.08 µM	6.03 µM	2.29 µM	10.6 µM	1.19 µM	7.96 µM	2.55 µM	7.92 µM	2.14 µM	16.9 µM	1.3 µM	5.4 µM	1.25 µM	2.7 µM	2 µM	4.94 µM	–
COc1ccc(/C=C(\NC(=O)c2ccccc2)c2nc3ccccc3[nH]2)cc1	–	> 100 µM	–	> 100 µM	–	> 100 µM	–	–	–	–	–	–	–	75.8 µM	–	–	90.6 µM
